Data: PMC8197120, “Synthesis and Characterization of Some New Quinoxalin-2(1H)one and 2-Methyl-3H-quinazolin-4-one Derivatives Targeting the Onset and Progression of CRC with SAR, Molecular Docking, and ADMET Analyses” (Molecules, 2021)
Values after ≈ are worked out from the molar mass of the structure shown. Like-named read-outs stand apart in the source and are kept apart here.

How the values were obtained:
[1] = system: Bacteroides fragilis (ATCC 25285); assay: Antibacterial activity, CFU viability; format: cell-based; conditions: ATCC25285, mean of two determinations, read-out: Mean IC50 ± SD
Experimental: (§1) Pure standard microbial isolates collected from King Khaled University Hospital were tested in this study, including Enterococcus faecalis (ATCC 29122) as Gram positive bacteria and Escherichia coli (ATCC 25922) and Bacteroides fragilis (ATCC 25285) as Gram negative bacteria. Fresh cultures of each microorganism were grown on nutrient agar plates (Oxoid, UK), of which small inoculums were suspended in 5 mL nutrient broth for bacterial suspension preparation of 0.5MacFarland. Bacterial viability was investigated by estimating the colony-forming unit (CFU) ability of the bacteria incubated at different time intervals without or with appropriate amounts of the compound that were mixed with 2 × 10^7 CFU/mL in sterile BHI broths and were incubated under shaking for 60 min at 37 °C. Samples were serially diluted into sterile BHI broths, streaked onto media agar plates, and incubated for 24 h at 37 °C. The antibacterial potency of tested compounds was expressed as the residual number of CFU with reference to the initial inoculums. […] Ampicillin (1 mg/mL) was used as a positive standard reference.

[2] = system: Enterococcus faecalis (ATCC 29122); assay: Antibacterial activity, CFU viability; format: cell-based; conditions: ATCC29122, mean of two determinations, read-out: Mean IC50 ± SD
Experimental: as §1

[3] = system: Escherichia coli (ATCC 25922); assay: Antibacterial activity, CFU viability; format: cell-based; conditions: ATCC25922, mean of two determinations, read-out: Mean IC50 ± SD
Experimental: as §1

COX-2 = target: T1, COX-2 (Homo sapiens, UniProt P35354); assay: Cyclooxygenase (COX-2) inhibition assay (Cayman kit 701080); format: biochemical; conditions: for inhibition at 100 µg/mL: read-out: Mean Inhibition % at 100 µg/ml ± SD; for inhibition at 200 µg/mL: read-out: Mean Inhibition % at 200 µg/ml ± SD
T1 construct: purchased Cayman Chemical Company 701080
T1 sequence (P35354 18-604): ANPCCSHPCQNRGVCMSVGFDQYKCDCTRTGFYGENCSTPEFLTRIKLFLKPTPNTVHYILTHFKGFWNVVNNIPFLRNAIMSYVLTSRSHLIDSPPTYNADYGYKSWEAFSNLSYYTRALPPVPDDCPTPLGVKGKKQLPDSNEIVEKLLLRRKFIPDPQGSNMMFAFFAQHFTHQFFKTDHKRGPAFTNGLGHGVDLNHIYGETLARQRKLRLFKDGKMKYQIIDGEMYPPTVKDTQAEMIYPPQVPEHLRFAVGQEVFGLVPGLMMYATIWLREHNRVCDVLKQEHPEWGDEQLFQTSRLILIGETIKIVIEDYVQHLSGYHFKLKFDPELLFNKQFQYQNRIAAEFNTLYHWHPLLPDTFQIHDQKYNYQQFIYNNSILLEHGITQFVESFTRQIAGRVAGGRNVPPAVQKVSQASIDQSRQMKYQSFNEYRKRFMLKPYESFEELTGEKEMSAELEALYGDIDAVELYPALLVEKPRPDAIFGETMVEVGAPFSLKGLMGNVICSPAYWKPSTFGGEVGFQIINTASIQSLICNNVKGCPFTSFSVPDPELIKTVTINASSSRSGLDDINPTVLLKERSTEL
Experimental: The compounds were resuspended in 100% DMSO at a final concentration of 10 mg/mL. […] The inhibitory activity was expressed as the inhibition percentage, which was determined by comparison with a control experiment. IC50 values were deduced from the curves.

[4] = target: purified recombinant human LDHA protein (Homo sapiens, UniProt P00338); assay: Lactate dehydrogenase-A (LDHA) inhibition assay, NADH consumption; format: biochemical; conditions: for inhibition at 100 µg/mL / inhibition at 200 µg/mL / IC50: LDHA; for inhibition at 100 µg/mL: read-out: Mean Inhibition % at 100 µg/ml ± SD; for inhibition at 200 µg/mL: read-out: Mean Inhibition % at 200 µg/ml ± SD
Experimental: LDHA inhibition activity was investigated by measuring the amounts of consumed NADH as described by Kim and his group. Briefly, different concentrations of each compound (50, 100, 200, and 300 µg) were incubated in buffer containing 20 mM of HEPES-K+ (pH 7.2), 20 μM of NADH, 2 mM of pyruvate, and 10 ng of purified recombinant human LDHA protein for 10 min. The fluorescence of NADH, which has an excitation wavelength of 340 nm and emission wavelength of 460 nm, was detected using a Spectrofluorometer.

[5] = In vitro cytotoxicity assay (LDH release); format: cell-based, human; conditions: human
Experimental: (§2) The best-in-class compounds, including (4c), (4d), (6a), (6b), (6d), (6e), and (6g), which were recognized as antimicrobial and enzymatic inhibitors, were further examined for their cytotoxic effects on LoVo and HCT-116 cells of human colon cancer. This was carried out by determining the residual percentages of viable cells after being treated with the compounds at different concentrations (50, 100, 200, and 400 µg/mL), using triton X-100 (at concentration of 0.1%) in the assay medium and the assay as the positive and negative controls, respectively.
(§3) Samples were diluted in Dulbecco’s modified Eagles medium, consisting of 10% fetal bovine serum, added to cells grown and cultured for 24 h in a 5% CO2-humidified incubator at 37 °C. Then, the activity of lactate dehydrogenase released from damaged cells was determined in the collected supernatant aliquots using an ELISA end-point assay (Benchmark Plus, Bio-Rad, CA, USA). The 0.1% Triton X-100 in the assay medium and the assay medium only were used as positive and negative controls, respectively. Cell viability, expressed as a relative percentage of the OD values (at 550 nm) for compound-treated cells (final concentration of 200 µg) and the control, is shown as mean ± SD (n = 2).

HCT-116 cells = assay: In vitro cytotoxicity assay (LDH release); format: cell-based, human
Experimental: as §2, §3

LoVo cells = assay: In vitro cytotoxicity assay (LDH release); format: cell-based, human
Experimental: as §2, §3

[6] = HCT-116 colon cancer cells, read-out: Mean % Cell Viability ± SD CRC-HCT-116 cells
[7] = LoVo colon cancer cells, read-out: Mean % Cell Viability ± SD CRC-LoVo cells

Molecule | IC50 [1] [µg/mL] | IC50 [2] [µg/mL] | IC50 [3] [µg/mL] | inhibition at 100 µg/mL (COX-2) [%] | inhibition at 200 µg/mL (COX-2) [%] | inhibition at 100 µg/mL [4] [%] | inhibition at 200 µg/mL [4] [%] | viability at 24 h, 200 µg/mL [5, 6] [%] | viability at 24 h, 200 µg/mL [5, 7] [%] | IC50 [4] [µM] | viability at 24 h, 200 µg/ml [5, 6] [%] | viability at 24 h, 200 µg/ml [5, 7] [%] | IC50 (COX-2) [µM] | fold by which (6e) is more potent than the labelled compound (LDHA inhibition efficiency) ([4]; 200 µg/mL, comparator 6e) [fold] | IC50 at 24 h ([5]; HCT-116 human colon cancer cells, HCT-116 cells) [µg/mL] | IC50 at 24 h ([5]; LoVo human colon cancer cells, LoVo cells) [µg/mL] | Mean % Cell Viability, positive control (HCT-116 cells) [%] | Mean % Cell Viability, positive control (LoVo cells) [%]
COc1cc(C=NNc2nc3ccccc3[nH]c2=O)cc([N+](=O)[O-])c1O [Compound 4c, 3-[N’-(4-Hydroxy-3-methoxy-5-nitro-benzylidene)-hydrazino]-1H-quinoxalin-2-one] | 8.05 ± 0.778 (≈ 22.7 µM) | 9.6 (≈ 27 µM) | 12.7 ± 0.778 (≈ 35.6 µM) | 36.5 ± 3.46 | 61.1 | 40.6 ± 2.33 | 64.2 | 77.3 ± 3.25 | 72.2 ± 4.45 |  |  |  |  |  |  |  |  | 
O=C(O)c1ccc(/C=N/Nc2nc3ccccc3[nH]c2=O)cc1 [Compound 4d, 4-[(3-Oxo-3,4-dihydro-quinoxalin-2-yl)-hydrazonomethyl]-benzoic acid] | 28.2 ± 1.77 (≈ 91.6 µM) | 10.8 (≈ 35 µM) | 30.6 ± 2.62 (≈ 99.1 µM) | 14.4 ± 0.778 | 28.9 | 47.4 ± 3.96 | 85 |  |  | 362 | 65.5 ± 3.54 | 60 ± 4.24 |  |  |  |  |  | 
COc1cc2nc(C)n(N=Cc3cc(OC)c(O)c([N+](=O)[O-])c3)c(=O)c2cc1OC [Compound 6a, 3-[(4-Hydroxy-3-methoxy-5-nitro-benzylidene)-amino]-6,7-dimethoxy-2-methyl-3H-quinazolin-4-one] | 10.9 ± 0.566 (≈ 26.3 µM) | 13.8 ± 0.495 (≈ 33.4 µM) | 7.9 ± 0.849 (≈ 19.1 µM) | 42.9 ± 2.97 | 83 | 62.5 | 89.7 | 91.2 ± 3.11 | 92.2 ± 2.62 | 248 |  |  | 293 |  |  |  |  | 
COc1cc2nc(C)n(N=Cc3ccc(C(=O)O)cc3)c(=O)c2cc1OC [Compound 6b, 4-[(6,7-Dimethoxy-2-methyl-4-oxo-4H-quinazolin-3-ylimino)-methyl]-benzoic acid] | 10.3 ± 1.2 (≈ 28.2 µM) | 12.7 (≈ 34.4 µM) | 18.2 ± 0.99 (≈ 49.5 µM) | 37.1 ± 2.69 | 69 ± 2.76 | 32 ± 2.55 | 49.2 | 47 ± 2.83 | 54.2 ± 2.47 |  |  |  |  |  |  |  |  | 
COc1cc2nc(C)n(N=Cc3ccc(OCc4ccccc4)c(OC)c3)c(=O)c2cc1OC [Compound 6d, 3-[(4-Benzyloxy-3-methoxy-benzylidene)-amino]-6,7-dimethoxy-2-methyl-3H-quinazolin-4-one] | 9 ± 0.99 (≈ 19.6 µM) | 15.2 ± 0.919 (≈ 33 µM) | 18.4 ± 1.27 (≈ 40 µM) | 50.2 | 97.5 | 31.2 ± 1.63 | 44.4 ± 3.39 | 18.5 | 26.8 |  |  |  | 215 | 1.7 | 100 (≈ 218 µM) | 128 (≈ 277 µM) |  | 
COc1cc(C=Nn2c(C)nc3ccc(Cl)cc3c2=O)ccc1OCc1ccccc1 [Compound 6e, 3-[(4-Benzyloxy-3-methoxy-benzylidene)-amino]-6-chloro-2-methyl-3H-quinazolin-4-one] | 12.8 ± 0.919 (≈ 29.4 µM) | 12.4 (≈ 28.6 µM) | 15.7 ± 0.919 (≈ 36.1 µM) | 57.9 | 100 | 44.8 ± 2.9 | 76.8 | 89 ± 2.83 | 93.4 ± 4.81 |  |  |  | 222 |  |  |  |  | 
CCc1ccc(C=Nn2c(C)nc3ccc(F)cc3c2=O)s1 [Compound 6g, 3-[(5-Ethyl-thiophen-2-ylmethylene)-amino]-6-fluoro-2-methyl-3H-quinazolin-4-one] | 19.9 ± 2.26 (≈ 63.1 µM) | 17.2 ± 1.77 (≈ 54.7 µM) | 24.8 ± 1.77 (≈ 78.5 µM) | 28.8 ± 2.47 | 48.6 ± 3.75 | 53.6 | 89.8 | 86.5 ± 2.12 | 88.2 ± 2.62 | 334 |  |  |  |  |  |  |  | 
Triton X-100 [reference compound] |  |  |  |  |  |  |  |  |  |  |  |  |  |  |  |  | 0.00 | 0.00
